Experimental data reported in article PMC10949855 (Journal of veterinary pharmacology and therapeutics, 2022).
Entries after “also recorded” stand apart in the source; their conditions may differ. Read-outs that look alike come from different tables or passages of the source.

Key:
[1] = test system: dogs; details: cited from earlier work
[2] = test system: dogs; details: SC, ref Pircio et al., 1976; cited from earlier work
[3] = test system: healthy dogs; experiment: Adverse effects observed after administration; details: SC 0.4 mg/kg
[4] = Pharmacokinetics of butorphanol in plasma; details: for AUC(0-inf): AUCinf
[5] = both, Beagle, dog, in vivo, iv, 0.4 mg/kg, IV bolus 0.4 mg/kg IV, geometric mean, n=6
[6] = both, Beagle, dog, in vivo, sc, 0.4 mg/kg
[7] = both, Beagle, dog, in vivo, sc, 0.4 mg/kg, SC 0.4 mg/kg, geometric mean, n=6

## Oc1ccc2c(c1)[C@@]13CCCC[C@@]1(O)[C@@H](C2)N(CC1CCC1)CC3 [butorphanol]
[1]; 0.4 mg/kg IV, 30 minutes (latest time point assessed), ref Houghton, et. al., 1991
  antinociception, colonic distension model: significant effects; also recorded: significant antinociception
[1]; 0.8 mg/kg SC, 45 minutes, ref Sawyer, et. al. 1991
  antinociception, colonic distension model: did produce a significant effect; also recorded: significant antinociception
[1]; doses up to 0.4 mg/kg SC, 45 minutes, ref Sawyer et al., 1991
  response, colonic distension nociceptive model: failed to produce a significant response
[2]
  dose of maximum effect on miosis: 0.25 mg/kg
[3]
  hypersalivation: 2/6
[4]; IV CRI: 0.2 mg/kg IV loading dose then 0.2 mg/kg/hr for 8 hours, geometric mean, n=5
  Css (steady state plasma concentration): 43.1 ng/mL
[4]; IV bolus 0.4 mg/kg IV, geometric mean, n=6
  AUC extrapolated: 1.0%
[4]; SC 0.4 mg/kg, geometric mean, n=6
  AUC extrapolated: 2.5%
[4]; both, Beagle, dog, in vivo, half-life, dogs, overall statement of abstract
  half-life: ~1.5 h
[4]; both, Beagle, dog, in vivo, iv, 0.4 mg/kg
  concentration at 5 min: 144 ng/mL
[4]; [5]
  AUC(0-inf): 143 ng·h/mL
  MRT: 1.26 h
[4]; both, Beagle, dog, in vivo, iv, 0.4 mg/kg, C0, IV bolus 0.4 mg/kg IV, geometric mean, n=6
  C0: 183 ng/mL
[4]; both, Beagle, dog, in vivo, iv, 0.4 mg/kg, Cl, IV bolus 0.4 mg/kg IV, geometric mean, n=6
  clearance: 46.5 mL/min/kg
[4]; both, Beagle, dog, in vivo, iv, 0.4 mg/kg, T ½ λz, IV bolus 0.4 mg/kg IV, geometric mean, n=6
  half-life: 1.47 h
[4]; both, Beagle, dog, in vivo, iv, 0.4 mg/kg, Vss, IV bolus 0.4 mg/kg IV, geometric mean, n=6
  Vd: 3.51 L/kg
[4]; both, Beagle, dog, in vivo, iv, 0.4 mg/kg, Vz, IV bolus 0.4 mg/kg IV, geometric mean, n=6
  Vd: 5.91 L/kg
[4]; both, Beagle, dog, in vivo, iv, 0.4 mg/kg, λz, IV bolus 0.4 mg/kg IV, geometric mean, n=6
  k el: 0.000131 s⁻¹
[4]; both, Beagle, dog, in vivo, iv, T ½ λz, IV CRI: 0.2 mg/kg IV loading dose then 0.2 mg/kg/hr for 8 hours, geometric mean, n=5
  half-life: 1.42 h
[4]; both, Beagle, dog, in vivo, iv, λz, IV CRI: 0.2 mg/kg IV loading dose then 0.2 mg/kg/hr for 8 hours, geometric mean, n=5
  k el: 0.000136 s⁻¹
[4]; [6]
  Cmax: 74.2 ng/mL
  TMAX: 0.21 h
[4]; [7]
  AUC(0-inf): 123 ng·h/mL
  MRT: 2.09 h
[4]; both, Beagle, dog, in vivo, sc, 0.4 mg/kg, T ½ λz, SC 0.4 mg/kg, geometric mean, n=6
  half-life: 1.83 h
[4]; both, Beagle, dog, in vivo, sc, 0.4 mg/kg, Λz, SC 0.4 mg/kg, geometric mean, n=6
  k el: 0.000105 s⁻¹
